Reference: US9834571B2, “Compounds for inhibiting cell proliferation in EGFR-driven cancers” (ARIAD Pharmaceuticals, Inc., priority 2012, dated 2017)
Where two headings read alike, the source gives them in different places.

What was measured:
EGFR L858R/T790M = EGFR L858R/T790M (Homo sapiens, UniProt P00533, L858R/T790M); experiment: Kinase inhibitory activity against EGFR bearing the L858R/T790M double mutation; assay type: biochemical; conditions: 10 μM ATP, read-out: IC50 for kinase inhibition, EGFR L858R T790M
Sequence of EGFR L858R/T790M (P00533 25-1210 T790M/L858R): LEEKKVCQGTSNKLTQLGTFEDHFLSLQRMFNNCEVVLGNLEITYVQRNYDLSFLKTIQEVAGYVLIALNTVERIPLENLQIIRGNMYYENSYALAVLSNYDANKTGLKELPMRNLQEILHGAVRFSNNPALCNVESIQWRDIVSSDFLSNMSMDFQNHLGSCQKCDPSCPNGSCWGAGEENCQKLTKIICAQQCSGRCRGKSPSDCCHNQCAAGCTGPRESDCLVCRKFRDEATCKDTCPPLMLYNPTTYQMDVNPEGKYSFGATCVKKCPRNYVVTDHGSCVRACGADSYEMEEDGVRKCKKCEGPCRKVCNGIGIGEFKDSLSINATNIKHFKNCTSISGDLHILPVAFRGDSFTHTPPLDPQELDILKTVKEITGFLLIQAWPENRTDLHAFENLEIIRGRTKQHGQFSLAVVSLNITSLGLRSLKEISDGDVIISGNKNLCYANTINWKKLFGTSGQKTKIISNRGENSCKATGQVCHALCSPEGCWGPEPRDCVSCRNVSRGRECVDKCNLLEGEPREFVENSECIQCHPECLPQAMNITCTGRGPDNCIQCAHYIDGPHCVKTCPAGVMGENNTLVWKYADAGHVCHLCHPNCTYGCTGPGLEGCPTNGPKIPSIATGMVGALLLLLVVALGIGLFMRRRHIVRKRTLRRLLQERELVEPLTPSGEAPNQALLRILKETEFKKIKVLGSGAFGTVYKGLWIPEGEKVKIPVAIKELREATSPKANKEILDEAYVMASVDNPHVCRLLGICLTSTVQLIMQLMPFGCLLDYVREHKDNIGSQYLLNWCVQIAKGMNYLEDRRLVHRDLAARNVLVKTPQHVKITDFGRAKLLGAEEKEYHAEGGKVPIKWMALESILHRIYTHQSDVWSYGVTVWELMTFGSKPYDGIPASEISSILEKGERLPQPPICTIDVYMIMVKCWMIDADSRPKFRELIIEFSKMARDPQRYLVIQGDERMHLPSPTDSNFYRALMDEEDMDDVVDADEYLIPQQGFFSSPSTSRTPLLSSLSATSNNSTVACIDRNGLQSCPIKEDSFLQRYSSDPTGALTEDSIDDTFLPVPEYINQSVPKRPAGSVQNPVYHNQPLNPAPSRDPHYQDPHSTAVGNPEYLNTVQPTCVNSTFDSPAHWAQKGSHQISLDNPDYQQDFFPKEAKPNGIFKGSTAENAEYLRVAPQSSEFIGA
Protocol: (§1) Kinase inhibitory activity of the compounds was measured against human EGFR (native sequence) and against EGFR bearing the L858R mution and the L858R/T790M double mutation (EGFR, L858R, and L858R/T790M, respectively in Table 1). Additional assays can be conducted with EGFR deletion mutants such as delE746-A750 with or without the additional T790M mutation. Assay conditions included 10 pt curves with 3 μM top concentration (singlicates) and 10 μM ATP.

[1] = test system: BaF3 cells expressing wildtype EGFR; experiment: Antiproliferative activity (MTT) against control BaF3 cells expressing wildtype EGFR; assay type: cell-based; conditions: Mus musculus
Protocol: (§2) We also assessed the antiproliferative activity of compounds of Formula (I) against BaF3 cells expressing the target EGFR mutations or control (i.e., cell lines expressing wildtype EGFR). Assays were conducted using MTT.

[2] = target: human EGFR (native sequence) (Homo sapiens, UniProt P00533); experiment: Kinase inhibitory activity against human EGFR (native sequence); assay type: biochemical; conditions: 10 μM ATP, read-out: IC50 for kinase inhibition, EGFR
Sequence of human EGFR (native sequence) (P00533 25-1210): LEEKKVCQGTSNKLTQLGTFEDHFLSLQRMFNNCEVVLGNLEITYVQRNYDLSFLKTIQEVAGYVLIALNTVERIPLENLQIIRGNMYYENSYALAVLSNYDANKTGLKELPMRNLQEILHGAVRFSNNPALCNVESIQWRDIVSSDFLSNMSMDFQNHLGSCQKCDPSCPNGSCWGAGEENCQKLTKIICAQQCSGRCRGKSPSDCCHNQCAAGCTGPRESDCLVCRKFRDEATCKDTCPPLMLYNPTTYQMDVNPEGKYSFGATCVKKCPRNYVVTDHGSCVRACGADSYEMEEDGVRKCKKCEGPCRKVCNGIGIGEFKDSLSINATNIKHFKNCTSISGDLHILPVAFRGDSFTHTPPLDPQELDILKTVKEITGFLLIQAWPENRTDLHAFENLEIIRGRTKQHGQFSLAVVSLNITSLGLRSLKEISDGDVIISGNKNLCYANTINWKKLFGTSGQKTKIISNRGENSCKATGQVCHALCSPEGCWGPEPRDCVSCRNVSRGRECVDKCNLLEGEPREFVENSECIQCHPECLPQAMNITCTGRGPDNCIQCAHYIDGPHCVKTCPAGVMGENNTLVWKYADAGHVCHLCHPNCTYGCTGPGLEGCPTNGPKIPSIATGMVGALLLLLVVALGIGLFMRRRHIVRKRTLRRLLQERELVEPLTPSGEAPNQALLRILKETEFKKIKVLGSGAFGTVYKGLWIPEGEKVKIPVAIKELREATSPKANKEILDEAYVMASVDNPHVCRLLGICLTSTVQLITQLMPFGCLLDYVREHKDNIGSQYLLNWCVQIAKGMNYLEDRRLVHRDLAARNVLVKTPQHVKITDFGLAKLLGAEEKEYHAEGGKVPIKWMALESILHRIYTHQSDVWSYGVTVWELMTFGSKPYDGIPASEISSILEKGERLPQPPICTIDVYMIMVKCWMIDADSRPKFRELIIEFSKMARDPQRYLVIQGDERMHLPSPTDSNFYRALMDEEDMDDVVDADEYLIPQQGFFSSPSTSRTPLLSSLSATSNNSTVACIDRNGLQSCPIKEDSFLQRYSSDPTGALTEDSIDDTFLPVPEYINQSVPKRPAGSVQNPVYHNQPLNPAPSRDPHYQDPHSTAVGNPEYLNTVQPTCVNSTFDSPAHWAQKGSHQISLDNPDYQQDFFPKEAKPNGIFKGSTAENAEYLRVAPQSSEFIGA
Protocol: as §1

[3] = target: T1, BaF3 cells expressing the target EGFR mutations (Homo sapiens, UniProt P00533, T790M, cells depend on it, form not given); experiment: Antiproliferative activity (MTT) against BaF3 cells expressing the target EGFR mutations; assay type: cell-based; conditions: BAF3 EGFR DEL T790M PURO POOL cells, read-out: IC50, BAF3 EGFR DEL T790M PURO POOL
T1 construct: IC50, BAF3 EGFR DEL T790M PURO POOL; other: BAF3 EGFR DEL T790M PURO POOL cells, MTT; other: BAF3 EGFR DEL T790M PURO POOL cells; MTT
Protocol: as §2

[4] = target: T2, BaF3 cells expressing the target EGFR mutations (Homo sapiens, UniProt P00533, T790M/L858R, cells depend on it); experiment: as above; assay type: cell-based; conditions: BAF3 EGFR L858R-T790M PURO POOL cells, read-out: IC50, BAF3 EGFR L858R-T790M PURO POOL
T2 construct: IC50, BAF3 EGFR L858R-T790M PURO POOL; other: BAF3 EGFR L858R-T790M PURO POOL cells, MTT; IC50, BAF3 EGFR L858R-T790M PURO POOL; other: BAF3 EGFR L858R-T790M PURO POOL cells; MTT
T2 sequence (P00533 whole entry T790M/L858R): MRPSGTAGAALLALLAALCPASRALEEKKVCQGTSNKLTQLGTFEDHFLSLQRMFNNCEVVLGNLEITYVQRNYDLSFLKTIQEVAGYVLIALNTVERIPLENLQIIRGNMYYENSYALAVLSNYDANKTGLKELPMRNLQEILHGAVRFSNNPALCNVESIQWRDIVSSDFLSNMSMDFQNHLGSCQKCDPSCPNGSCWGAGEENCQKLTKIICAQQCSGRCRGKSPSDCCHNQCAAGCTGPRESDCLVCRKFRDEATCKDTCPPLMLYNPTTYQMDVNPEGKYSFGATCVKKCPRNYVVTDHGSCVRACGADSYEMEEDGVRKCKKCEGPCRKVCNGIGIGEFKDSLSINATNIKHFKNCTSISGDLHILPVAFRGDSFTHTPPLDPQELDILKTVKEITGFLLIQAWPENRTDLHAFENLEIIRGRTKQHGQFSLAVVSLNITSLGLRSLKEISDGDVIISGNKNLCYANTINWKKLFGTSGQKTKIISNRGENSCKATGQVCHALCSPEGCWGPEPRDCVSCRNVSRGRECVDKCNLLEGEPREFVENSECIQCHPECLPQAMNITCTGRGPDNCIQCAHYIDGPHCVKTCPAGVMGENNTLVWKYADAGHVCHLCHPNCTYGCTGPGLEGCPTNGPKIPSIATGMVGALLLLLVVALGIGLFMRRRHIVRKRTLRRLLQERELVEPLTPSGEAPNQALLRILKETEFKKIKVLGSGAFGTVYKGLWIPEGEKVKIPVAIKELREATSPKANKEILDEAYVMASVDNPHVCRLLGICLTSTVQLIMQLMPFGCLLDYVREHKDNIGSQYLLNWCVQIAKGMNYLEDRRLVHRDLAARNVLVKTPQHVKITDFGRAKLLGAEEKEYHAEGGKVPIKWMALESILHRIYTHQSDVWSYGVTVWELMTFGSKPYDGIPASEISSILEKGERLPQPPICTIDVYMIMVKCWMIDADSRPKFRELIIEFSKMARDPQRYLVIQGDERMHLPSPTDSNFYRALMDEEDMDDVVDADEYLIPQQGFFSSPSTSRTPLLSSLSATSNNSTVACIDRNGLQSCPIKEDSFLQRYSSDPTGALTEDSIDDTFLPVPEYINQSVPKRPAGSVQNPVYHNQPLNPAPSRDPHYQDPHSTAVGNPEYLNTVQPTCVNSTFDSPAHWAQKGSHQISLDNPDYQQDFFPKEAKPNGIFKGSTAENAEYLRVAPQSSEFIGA
Protocol: as §2

EGFR L858R = EGFR L858R (Homo sapiens, UniProt P00533, L858R); experiment: Kinase inhibitory activity against EGFR bearing the L858R mutation; assay type: biochemical; conditions: 10 μM ATP, read-out: IC50 for kinase inhibition, EGFR L858R
Sequence of EGFR L858R (P00533 25-1210 L858R): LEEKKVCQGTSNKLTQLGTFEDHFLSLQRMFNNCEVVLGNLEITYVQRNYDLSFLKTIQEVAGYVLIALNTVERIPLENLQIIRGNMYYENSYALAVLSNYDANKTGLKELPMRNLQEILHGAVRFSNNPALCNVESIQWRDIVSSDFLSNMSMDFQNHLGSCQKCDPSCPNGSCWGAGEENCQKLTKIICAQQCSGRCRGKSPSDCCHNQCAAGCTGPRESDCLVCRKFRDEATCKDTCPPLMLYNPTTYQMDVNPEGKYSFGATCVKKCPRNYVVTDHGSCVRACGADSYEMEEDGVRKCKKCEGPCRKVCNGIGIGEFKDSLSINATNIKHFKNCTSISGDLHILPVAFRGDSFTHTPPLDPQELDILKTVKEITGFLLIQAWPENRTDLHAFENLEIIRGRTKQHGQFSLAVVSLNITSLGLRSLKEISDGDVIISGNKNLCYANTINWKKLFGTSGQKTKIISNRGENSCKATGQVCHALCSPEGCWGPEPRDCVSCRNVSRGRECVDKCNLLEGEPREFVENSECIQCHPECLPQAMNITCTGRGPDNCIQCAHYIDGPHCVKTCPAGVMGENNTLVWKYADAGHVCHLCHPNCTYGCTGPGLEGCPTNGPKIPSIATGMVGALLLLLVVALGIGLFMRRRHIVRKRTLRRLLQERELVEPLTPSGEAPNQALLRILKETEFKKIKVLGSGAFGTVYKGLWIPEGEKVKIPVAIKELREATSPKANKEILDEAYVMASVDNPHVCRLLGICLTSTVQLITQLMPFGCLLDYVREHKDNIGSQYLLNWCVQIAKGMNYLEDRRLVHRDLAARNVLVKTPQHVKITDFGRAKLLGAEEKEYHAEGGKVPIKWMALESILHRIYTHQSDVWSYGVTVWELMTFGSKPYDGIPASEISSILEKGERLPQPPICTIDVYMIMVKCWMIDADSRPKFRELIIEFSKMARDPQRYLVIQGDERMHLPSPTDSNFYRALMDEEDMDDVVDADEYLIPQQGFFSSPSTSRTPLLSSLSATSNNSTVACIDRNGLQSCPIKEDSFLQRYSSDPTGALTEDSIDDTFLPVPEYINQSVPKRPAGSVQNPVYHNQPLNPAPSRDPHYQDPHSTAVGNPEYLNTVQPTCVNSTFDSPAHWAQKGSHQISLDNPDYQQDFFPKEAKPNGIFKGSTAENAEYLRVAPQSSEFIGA
Protocol: as §1

[5] = 10 pt curves, 3 μM top concentration
[6] = EGFR L858R/T790M double mutation

## CNC(=O)/C=C/C(=O)Nc1ccc(OC)c(Nc2ncc(Cl)c(Nc3ccccc3P(C)(C)=O)n2)c1 [Example 109, N1-(3-((5-chloro-4-((2-(dimethylphosphoryl)phenyl)amino)pyrimidin-2-yl)amino)-4-methoxyphenyl)-N4-methylfumaramide]
EGFR L858R/T790M; [5]
  IC50: < 50 nM
[1]; BAF3 parental cells
  IC50: ≥ 250 nM
[2]; [5]
  IC50: ≥ 250 nM
[3]
  GI50: 50 to 100 nM
[4]
  GI50: 101 to 250 nM
EGFR L858R; [5]
  IC50: < 50 nM

## C=CC(=O)Nc1cc(Nc2ncc(Cl)c(Nc3ccccc3P(C)(C)=O)n2)c(OC)cc1N1CC[C@@H](N(C)C)C1 (stereo in doubt) [Example 26, rac-(R)-N-(5-((5-chloro-4-((2-(dimethylphosphoryl)phenyl)amino)pyrimidin-2-yl)amino)-2-(3-(dimethylamino)pyrrolidin-1-yl)-4-methoxyphenyl)acrylamide]
EGFR L858R/T790M; [6]
  IC50: < 50 nM
[1]; BAF3 PARENTAL cells (control)
  IC50: ≥ 250 nM
[2]; human EGFR native sequence
  IC50: < 50 nM
[3]
  GI50: < 50 nM
[4]
  GI50: < 50 nM
EGFR L858R; EGFR L858R
  IC50: < 50 nM

## C=CC(=O)Nc1ccc(OC)c(Nc2ncc(OC)c(Nc3ccccc3P(C)(C)=O)n2)c1 [Example 131, N-(3-((4-((2-(dimethylphosphoryl)phenyl)amino)-5-methoxypyrimidin-2-yl)amino)-4-methoxyphenyl)acrylamide]
EGFR L858R/T790M; [5]
  IC50: < 50 nM
[1]; BAF3 parental cells
  IC50: ≥ 250 nM
[2]; [5]
  IC50: 50 to 100 nM
[3]
  GI50: < 50 nM
[4]
  GI50: 50 to 100 nM
EGFR L858R; [5]
  IC50: < 50 nM

## C=CC(=O)Nc1ccc(OC)c(Nc2ncc(C#N)c(Nc3ccccc3P(C)(C)=O)n2)c1 [Example 139, N-(3-((5-cyano-4-((2-(dimethylphosphoryl)phenyl)amino)pyrimidin-2-yl)amino)-4-methoxyphenyl)acrylamide]
EGFR L858R/T790M; [5]
  IC50: < 50 nM
[1]; BAF3 parental cells
  IC50: ≥ 250 nM
[2]; [5]
  IC50: < 50 nM
[3]
  GI50: 101 to 250 nM
[4]
  GI50: ≥ 250 nM
EGFR L858R; [5]
  IC50: < 50 nM

## C=C(CN1CCC(O)C1)C(=O)Nc1ccc(OC)c(Nc2ncc(Cl)c(Nc3ccccc3P(C)(C)=O)n2)c1 (stereo not drawn) [Example 53, N-(3-((5-chloro-4-((2-(dimethylphosphoryl)phenyl)amino)pyrimidin-2-yl)amino)-4-methoxyphenyl)-2-((3-hydroxypyrrolidin-1-yl)methyl)acrylamide]
EGFR L858R/T790M; [6]
  IC50: < 50 nM
[1]; BAF3 PARENTAL cells (control)
  IC50: ≥ 250 nM
[2]; human EGFR native sequence
  IC50: < 50 nM
[3]
  GI50: < 50 nM
[4]
  GI50: < 50 nM
EGFR L858R; EGFR L858R
  IC50: < 50 nM

## COc1ccc(NC(=O)/C=C\C(=O)N2CCN(C)CC2)cc1Nc1ncc(Cl)c(Nc2ccccc2P(C)(C)=O)n1 [Example 63, (Z)-N-(3-((5-chloro-4-((2-(dimethylphosphoryl)phenyl)amino)pyrimidin-2-yl)amino)-4-methoxyphenyl)-4-(4-methylpiperazin-1-yl)-4-oxobut-2-enamide]
EGFR L858R/T790M; [6]
  IC50: ≥ 250 nM
[1]; BAF3 PARENTAL cells (control)
  IC50: ≥ 250 nM
[2]; human EGFR native sequence
  IC50: ≥ 250 nM
[3]
  GI50: ≥ 250 nM
[4]
  GI50: ≥ 250 nM
EGFR L858R; EGFR L858R
  IC50: 101 to 250 nM

## C=CC(=O)Nc1cc(Nc2ncc(Cl)c(Nc3ccccc3P(C)(C)=O)n2)c(OC)cc1N1CCC(N(C)CCOC)C1 (stereo not drawn) [Example 41, N-(5-((5-chloro-4-((2-(dimethylphosphoryl)phenyl)amino)pyrimidin-2-yl)amino)-4-methoxy-2-(3-((2-methoxyethyl)(methyl)amino)pyrrolidin-1-yl)phenyl)acrylamide]
EGFR L858R/T790M; [6]
  IC50: < 50 nM
[1]; BAF3 PARENTAL cells (control)
  IC50: ≥ 250 nM
[2]; human EGFR native sequence
  IC50: < 50 nM
[3]
  GI50: < 50 nM
[4]
  GI50: < 50 nM
EGFR L858R; EGFR L858R
  IC50: < 50 nM

## COc1cc(N2CCCC2)c(NC(=O)C#CCCN2CCN(C)CC2)cc1Nc1ncc(Cl)c(Nc2ccccc2P(C)(C)=O)n1 [Example 119, N-(5-((5-chloro-4-((2-(dimethylphosphoryl)phenyl)amino)pyrimidin-2-yl)amino)-4-methoxy-2-(pyrrolidin-1-yl)phenyl)-5-(4-methylpiperazin-1-yl)pent-2-ynamide]
EGFR L858R/T790M; [5]
  IC50: < 50 nM
[1]; BAF3 parental cells
  IC50: ≥ 250 nM
[2]; [5]
  IC50: < 50 nM
[3]
  GI50: 101 to 250 nM
[4]
  GI50: 101 to 250 nM
EGFR L858R; [5]
  IC50: < 50 nM

## COCC#CC(=O)Nc1cc(Nc2ncc(Cl)c(Nc3ccccc3P(C)(C)=O)n2)c(OC)cc1N1CCC(N(C)C)C1 (stereo not drawn) [Example 111, N-(5-((5-chloro-4-((2-(dimethylphosphoryl)phenyl)amino)pyrimidin-2-yl)amino)-2-(3-(dimethylamino)pyrrolidin-1-yl)-4-methoxyphenyl)-4-methoxybut-2-ynamide]
EGFR L858R/T790M; [5]
  IC50: < 50 nM
[1]; BAF3 parental cells
  IC50: ≥ 250 nM
[2]; [5]
  IC50: < 50 nM
[3]
  GI50: < 50 nM
[4]
  GI50: < 50 nM
EGFR L858R; [5]
  IC50: < 50 nM

## C=C(CN1CCC(N2CCOCC2)CC1)C(=O)Nc1ccc(OC)c(Nc2ncc(Cl)c(Nc3ccccc3P(C)(C)=O)n2)c1 [Example 51, N-(3-((5-chloro-4-((2-(dimethylphosphoryl)phenyl)amino)pyrimidin-2-yl)amino)-4-methoxyphenyl)-2-((4-morpholinopiperidin-1-yl)methyl)acrylamide]
EGFR L858R/T790M; [6]
  IC50: < 50 nM
[1]; BAF3 PARENTAL cells (control)
  IC50: ≥ 250 nM
[2]; human EGFR native sequence
  IC50: < 50 nM
[3]
  GI50: < 50 nM
[4]
  GI50: < 50 nM
EGFR L858R; EGFR L858R
  IC50: < 50 nM

## COc1ccc(NC(=O)/C=C\C(=O)O)cc1Nc1ncc(Cl)c(Nc2ccccc2P(C)(C)=O)n1 [Example 61, (Z)-4-((3-((5-chloro-4-((2-(dimethylphosphoryl)phenyl)amino)pyrimidin-2-yl)amino)-4-methoxyphenyl)amino)-4-oxobut-2-enoic acid]
EGFR L858R/T790M; [6]
  IC50: 101 to 250 nM
[1]; BAF3 PARENTAL cells (control)
  IC50: ≥ 250 nM
[2]; human EGFR native sequence
  IC50: ≥ 250 nM
[3]
  GI50: ≥ 250 nM
[4]
  GI50: ≥ 250 nM
EGFR L858R; EGFR L858R
  IC50: ≥ 250 nM

## COc1ccc(NC(=O)C#Cc2ccccc2)cc1Nc1ncc(Cl)c(Nc2ccccc2P(C)(C)=O)n1 [Example 93, N-(3-((5-chloro-4-((2-(dimethylphosphoryl)phenyl)amino)pyrimidin-2-yl)amino)-4-methoxyphenyl)-3-phenylpropiolamide]
EGFR L858R/T790M; [6]
  IC50: < 50 nM
[1]; BAF3 PARENTAL cells (control)
  IC50: ≥ 250 nM
[2]; human EGFR native sequence
  IC50: ≥ 250 nM
[3]
  GI50: < 50 nM
[4]
  GI50: < 50 nM
EGFR L858R; EGFR L858R
  IC50: < 50 nM

## C=CC(=O)Nc1cc(Nc2ncc(Cl)c(Nc3ccccc3P(C)(C)=O)n2)c(OC)cc1O[C@@H](COC)CN(C)C [Example 129, (R)-N-(5-((5-chloro-4-((2-(dimethylphosphoryl)phenyl)amino)pyrimidin-2-yl)amino)-2-((1-(dimethylamino)-3-methoxypropan-2-yl)oxy)-4-methoxyphenyl)acrylamide]
EGFR L858R/T790M; [5]
  IC50: < 50 nM
[1]; BAF3 parental cells
  IC50: ≥ 250 nM
[2]; [5]
  IC50: < 50 nM
[3]
  GI50: < 50 nM
[4]
  GI50: < 50 nM
EGFR L858R; [5]
  IC50: < 50 nM

## COc1ccc(NS(=O)(=O)CCl)cc1Nc1ncc(Cl)c(Nc2ccccc2P(C)(C)=O)n1 [Example 150, 1-chloro-N-(3-((5-chloro-4-((2-(dimethylphosphoryl)phenyl)amino)pyrimidin-2-yl)amino)-4-methoxyphenyl)methanesulfonamide]
EGFR L858R/T790M; [5]
  IC50: ≥ 250 nM
[1]; BAF3 parental cells
  IC50: ≥ 250 nM
[2]; [5]
  IC50: ≥ 250 nM
[3]
  GI50: ≥ 250 nM
[4]
  GI50: ≥ 250 nM
EGFR L858R; [5]
  IC50: ≥ 250 nM

## C=CC(=O)Nc1cc(Nc2ncc(Cl)c(Nc3ccccc3P(C)(C)=O)n2)c(OC)cc1OCC1CCCCN1C (stereo not drawn) [Example 7, N-(5-((5-chloro-4-((2-(dimethylphosphoryl)phenyl)amino)pyrimidin-2-yl)amino)-4-methoxy-2-((1-methylpiperidin-2-yl)methoxy)phenyl)acrylamide]
EGFR L858R/T790M; [6]
  IC50: < 50 nM
[1]; BAF3 PARENTAL cells (control)
  IC50: ≥ 250 nM
[2]; human EGFR native sequence
  IC50: < 50 nM
[3]
  GI50: < 50 nM
[4]
  GI50: < 50 nM
EGFR L858R; EGFR L858R
  IC50: < 50 nM

## C=CC(=O)Nc1cc(Nc2ncc(Cl)c(Nc3ccccc3P(C)(C)=O)n2)c(OC)cc1OC1CCN(C)C1 (stereo not drawn) [Example 13, N-(5-((5-chloro-4-((2-(dimethylphosphoryl)phenyl)amino)pyrimidin-2-yl)amino)-4-methoxy-2-((1-methylpyrrolidin-3-yl)oxy)phenyl)acrylamide]
EGFR L858R/T790M; [6]
  IC50: < 50 nM
[1]; BAF3 PARENTAL cells (control)
  IC50: ≥ 250 nM
[2]; human EGFR native sequence
  IC50: < 50 nM
[3]
  GI50: < 50 nM
[4]
  GI50: < 50 nM
EGFR L858R; EGFR L858R
  IC50: < 50 nM
